# Assay results published in patent US11718637B2, “Prodrugs of 4′-C-substituted-2-halo-2′- deoxyadenosine nucleosides and methods of making and using the same” (Gilead Sciences, Inc., priority 2020, dated 2023).
# pEC50: −log10 of the molar value. Like-named read-outs stand apart in the source and are kept apart here.
# How the values were obtained:
# HIV-1 (IIIB) = assay: Antiviral assay in MT-4 cells; assay type: cell-based
# Experimental: (§1) Compounds were tested in a high-throughput 384-well assay format for their ability to inhibit the replication of HIV-1 (IIIB) in MT-4 cells. Compounds were serially diluted (1:3) in DMSO on 384-well polypropylene plates and further diluted 200-fold into complete RPMI media (10% FBS, 1% P/S) using the Biotek Micro Flow and Labcyte ECHO acoustic dispenser. Each plate contained up to 8 test compounds, with negative (No Drug Control) and 5 μM AZT positive controls. MT-4 cells were pre-infected with 10 μL of either RPMI (mock-infected) or a fresh 1:250 dilution of HIV-1 IIIB concentrated virus stock. Infected and uninfected MT-4 cells were further diluted in complete RPMI media and added to each plate using a Micro Flow dispenser. After 5 days incubation in a humidified and temperature-controlled incubator (37° C.), Cell Titer Glo (Promega) was added to the assay plates and chemiluminescence read using an Envision plate-reader. EC50 values were defined as the compound concentration that causes a 50% decrease in luminescence signal, and were calculated using a sigmoidal dose-response model to generate curve fits.
# [1] = Cytotoxicity assay in MT-4 cells; assay type: cell-based; details: human; uninfected MT-4 cells, 5 days incubation, Cell Titer Glo
# Experimental: as §1, with “fits. Assays were performed as above except uninfected MT-4 cells were added to each well containing test compound. In addition, 10 μM puromycin was added to the last column of each assay plate to assess a base level of cytotoxicity.” for “fits.”
# [2] = Kinetic solubility analysis (CLND); assay type: physicochemical; details: 24.2 °C, kinetic from dmso stock, from DMSO stocks, 1.0% DMSO, 24-hour incubation at ambient temperature, medium (0.1N HCl or PBS 7.4) not stated
# Experimental: Kinetic Solubility Analysis (CLND)
# 0.1N HCl: Hydrochloric acid, 0.1N standardized solution.
# 1×PBS, 7.4: Phosphate Buffered Saline solution 10×, PBS 50 mL was added to approximately 450 mL HPLC grade H2O. The volume of the solution was then adjusted to 500 mL for a total dilution factor of 1:10 and a final PBS concentration of 1×. The pH of the final solution was measured and found to be 7.4.
# Kinetic Solubility from DMSO Stocks: 100-fold dilutions of each DMSO stock solution were prepared in singleton by combining 3 μL of DMSO stock with 297 μL of the appropriate media in a Millipore solubility filter plate with a […] polycarbonate filter membrane using Hamilton Starlet liquid handling. The final DMSO concentration is 1.0% and maximum theoretical compound concentration is 100 μM (assuming stock concentration of 10 mM). The filter plate was sealed. Following 24-hour incubation at ambient temperature (24.2-27.5° C.), the samples were vacuum filtered and the filtrates were collected in a 96 well polypropylene plate for analysis. The collection plate was sealed for analysis.
# Filtrates were injected into the nitrogen detector for quantification. The results are reported here in μM.
# Calculation of Results: The equimolar nitrogen response of the detector was calibrated using standards which spanned the dynamic range of the instrument from […] nitrogen. The filtrates were quantified with respect to this calibration curve. The calculated solubility values were corrected for background nitrogen present in the DMSO and the media used to prepare the samples. All reported values for compounds containing adjacent nitrogen atoms in a ring structure should be increased by ˜25%. […] The solubility results presented assume that the samples were free of nitrogen containing impurities and were stable under the assay conditions.
# [3] = Human immunodeficiency virus 1, MT4, 120 h, HIV-1 IIIB replication in MT-4 cells, 5 days incubation, Cell Titer Glo, read-out: EC50
pEC50 (HIV-1 (IIIB); [3]),solubility kinetic at 24 h [2],SMILES,"pEC50 (HIV-1 (IIIB); Human immunodeficiency virus 1, IIIB, MT4, 120 h)",CC50 at 5 days [1]
–,–,"C#C[C@]1(CO[P@@](=O)(N[C@@H](C)C(=O)OCC(CC)CC)Oc2ccccc2)O[C@@H](n2cnc3c(N)nc(F)nc32)C[C@@H]1O (single isomer, unassigned) [Compound 4]",8.10,–
8.15,6.6 µM,"C#C[C@]1(COC(=O)C(C)C)O[C@@H](n2cnc3c(N)nc(F)nc32)C[C@@H]1OC(=O)C(C)C [Compound 1, (2R,3S,5R)-5-(6-amino-2-fluoro-9H-purin-9-yl)-2-ethynyl-2-((isobutyryloxy)methyl)tetrahydrofuran-3-yl isobutyrate]",–,37300 nM
7.15,1.2 µM,"C#C[C@]1(CO)O[C@@H](n2cnc3c(NC(=O)OCCCCCCCCCCCCCC)nc(F)nc32)C[C@@H]1O [Compound 2, Tetradecyl (9-((2R,4S,5R)-5-ethynyl-4-hydroxy-5-(hydroxymethyl)tetrahydrofuran-2-yl)-2-fluoro-9H-purin-6-yl)carbamate]",–,13400 nM
7.22,–,"C#C[C@]1(CO)O[C@@H](n2cnc3c(NC(=O)OCCCCCCCCCCCCCCCC)nc(F)nc32)C[C@@H]1O [Compound 3, Hexadecyl (9-((2R,4S,5R)-5-ethynyl-4-hydroxy-5-(hydroxymethyl)tetrahydrofuran-2-yl)-2-fluoro-9H-purin-6-yl)carbamate]",–,11800 nM
8.10,< 1 µM,C#C[C@]1(COC(=O)c2ccccc2COC(=O)CCCCCCCCCCCCCCC)O[C@@H](n2cnc3c(N)nc(F)nc32)C[C@@H]1O [Compound 5],–,> 50000 nM
7.54,< 1 µM,"C#C[C@]1(CO)O[C@@H](n2cnc3c(N)nc(F)nc32)C[C@@H]1OC(=O)c1ccccc1COC(=O)CCCCCCCCCCCCCCC [Compound 6, (2R,3S,5R)-5-(6-amino-2-fluoro-4,5-dihydro-9H-purin-9-yl)-2-ethynyl-2-(hydroxymethyl)tetrahydrofuran-3-yl 2-((palmitoyloxy)methyl)benzoate]",–,> 50000 nM
< 6.30,2 µM,"C#C[C@]1(COC(=O)c2ccccc2COC(=O)CCCCCCCCCCCCCCC)O[C@@H](n2cnc3c(N)nc(F)nc32)C[C@@H]1OC(=O)c1ccccc1COC(=O)CCCCCCCCCCCCCCC [Compound 7, (2R,3S,5R)-5-(6-amino-2-fluoro-9H-purin-9-yl)-2-ethynyl-2-(((2-((palmitoyloxy)methyl)benzoyl)oxy)methyl)tetrahydrofuran-3-yl 2-((palmitoyloxy)methyl)benzoate]",–,> 50000 nM
8.52,< 1 µM,"C#C[C@]1(COC(=O)CCCCCCCCCCCCC)O[C@@H](n2cnc3c(N)nc(F)nc32)C[C@@H]1O [Compound 8, ((2R,3S,5R)-5-(6-amino-2-fluoro-9H-purin-9-yl)-2-ethynyl-3-hydroxytetrahydrofuran-2-yl)methyl tetradecanoate]",–,> 20200 nM
8.40,< 1 µM,"C#C[C@]1(CO)O[C@@H](n2cnc3c(N)nc(F)nc32)C[C@@H]1OC(=O)CCCCCCCCCCCCC [Compound 9, (2R,3S,5R)-5-(6-amino-2-fluoro-9H-purin-9-yl)-2-ethynyl-2-(hydroxymethyl)tetrahydrofuran-3-yl tetradecanoate]",–,> 23000 nM
< 6.30,< 1 µM,"C#C[C@]1(COC(=O)CCCCCCCCCCCCC)O[C@@H](n2cnc3c(N)nc(F)nc32)C[C@@H]1OC(=O)CCCCCCCCCCCCC [Compound 10, (2R,3S,5R)-5-(6-amino-2-fluoro-9H-purin-9-yl)-2-ethynyl-2-((tetradecanoyloxy)methyl)tetrahydrofuran-3-yl tetradecanoate]",–,> 50000 nM
8.15,< 1 µM,"C#C[C@]1(COC(=O)CCCCCCCCCCCCCCCCC)O[C@@H](n2cnc3c(N)nc(F)nc32)C[C@@H]1O [Compound 11, ((2R,3S,5R)-5-(6-amino-2-fluoro-9H-purin-9-yl)-2-ethynyl-3-hydroxytetrahydrofuran-2-yl)methyl stearate]",–,> 41500 nM
8.22,< 1 µM,"C#C[C@]1(COC(=O)OCCCCCCCCCCCC)O[C@@H](n2cnc3c(N)nc(F)nc32)C[C@@H]1O [Compound 12, ((2R,3S,5R)-5-(6-amino-2-fluoro-9H-purin-9-yl)-2-ethynyl-3-hydroxytetrahydrofuran-2-yl)methyl dodecyl carbonate]",–,17000 nM
< 6.30,< 1 µM,"C#C[C@]1(COC(=O)OCCCCCCCCCCCC)O[C@@H](n2cnc3c(N)nc(F)nc32)C[C@@H]1OC(=O)OCCCCCCCCCCCC [Compound 13, ((2R,3S,5R)-5-(6-amino-2-fluoro-9H-purin-9-yl)-3-(((dodecyloxy)carbonyl)oxy)-2-ethynyltetrahydrofuran-2-yl)methyl dodecyl carbonate]",–,5500 nM
8.15,< 1 µM,"C#C[C@]1(COC(=O)CCCCCC)O[C@@H](n2cnc3c(N)nc(F)nc32)C[C@@H]1OC(=O)CCCCCC [Compound 17, (2R,3S,5R)-5-(6-amino-2-fluoro-9H-purin-9-yl)-2-ethynyl-2-((heptanoyloxy)methyl)tetrahydrofuran-3-yl heptanoate]",–,> 20900 nM
7.70,1.5 µM,"C#C[C@]1(COC(=O)CCCCCC)O[C@@H](n2cnc3c(NC(=O)CCCCCC)nc(F)nc32)C[C@@H]1OC(=O)CCCCCC [Compound 18, (2R,3S,5R)-2-ethynyl-5-(2-fluoro-6-heptanamido-9H-purin-9-yl)-2-((heptanoyloxy)methyl)tetrahydrofuran-3-yl heptanoate-3-yl 2-((palmitoyloxy)methyl)benzoate]",–,> 10100 nM

SMILES,pEC50 (HIV-1 (IIIB); [3]),solubility kinetic at 24 h [2],"pEC50 (HIV-1 (IIIB); Human immunodeficiency virus 1, IIIB, MT4, 120 h)",CC50 at 5 days [1]
"C#C[C@]1(COC(=O)CC(C)(C)c2c(C)cc(C)cc2OC(C)=O)O[C@@H](n2cnc3c(N)nc(F)nc32)C[C@@H]1O [Compound 14, ((2R,3S,5R)-5-(6-amino-2-fluoro-9H-purin-9-yl)-2-ethynyl-3-hydroxytetrahydrofuran-2-yl)methyl 3-(2-acetoxy-4,6-dimethylphenyl)-3-methylbutanoate]",8.40,37 µM,–,> 21600 nM
"C#C[C@]1(CO)O[C@@H](n2cnc3c(N)nc(F)nc32)C[C@@H]1OC(=O)CC(C)(C)c1c(C)cc(C)cc1OC(C)=O [Compound 15, (2R,3S,5R)-5-(6-amino-2-fluoro-9H-purin-9-yl)-2-ethynyl-2-(hydroxymethyl)tetrahydrofuran-3-yl 3-(2-acetoxy-4,6-dimethylphenyl)-3-methylbutanoate]",8.52,25.1 µM,–,11800 nM
"C#C[C@]1(COC(=O)CC(C)(C)c2c(C)cc(C)cc2OC(C)=O)O[C@@H](n2cnc3c(N)nc(F)nc32)C[C@@H]1OC(=O)CC(C)(C)c1c(C)cc(C)cc1OC(C)=O [Compound 16, ((2R,3S,5R)-3-((3-(2-acetoxy-4,6-dimethylphenyl)-3-methylbutanoyl)oxy)-5-(6-amino-2-fluoro-9H-purin-9-yl)-2-ethynyltetrahydrofuran-2-yl)methyl 3-(2-acetoxy-4,6-dimethylphenyl)-3-methylbutanoate]",8.00,< 1 µM,–,15700 nM
